Entries after “also recorded” stand apart in the source; their conditions may differ.
What was measured:
[1] = biological target: T1, Nef/CNX interaction (Human immunodeficiency virus type 1 group M subtype B, UniProt P03406); experiment: Co-immunoprecipitation of Nef and calnexin in transfected HEK293T cells; assay type: cell-based, HIV-1; settings: for inhibition of co-immunoprecipitation of Nef and calnexin: added 6 h post-transfection, lysed 48 h post-transfection, HEK293T
T1 construct: expressed in transfected cells; host or cells: HEK293T
Method: (§1) To test whether the compounds identified in the virtual screen can interfere with Nef/CNX interaction, a co-immunoprecipitation assay was performed. HEK293T cells were transfected with plasmid encoding for NefBRU and 6 h post-transfection were treated with NSC 1758 (4 μM), NSC 13987 (5 μM), or NSC 92938 (5 μM). These concentrations of the compounds were determined by the MTT assay to reduce cell metabolism by less than 10% during 5-day incubation (FIG. 6C). […] It was previously shown that membrane localization of Nef is important for interaction of Nef with calnexin (5). In order to rule out the possibility that the compound interferes with membrane localization of Nef, it was tested whether NSC 13987 affects interaction between Nef and ABCA1, as ABCA1/Nef interaction also requires membrane localization of Nef (1).
Their overall location in the structural alignment with the model of Nef-CNX complex is shown as translucent molecular surface. […] The set of compounds includes NSC 1758, NSC 13987, and NSC 92938 selected for experimental testing. b, Compound NSC 13987 docked to Nef binding site, which is centered on Lys4 and Lys7. Interactions of the compound with Nef include two hydrogen bonds with Nef amino acid residues Ser6 and Tyr124. […] THP-1 cells were treated with indicated compounds for 5 days and cytotoxicity was measured using MTT assay. In panel (D), HEK 293T cells were transfected with HA-tagged Nef, treated with compounds NSC 1758, NSC 13987 or NSC 92938, and lysed. Nef was immunoprecipitated using anti-HA agarose beads and bound complexes were immunoblotted for Nef and calnexin (left panels labeled IP: aIIA). Densitometric quantification of calnexin co-immunoprecipitation with Nef is presented in the right panel. Error bars indicate +/−SD of 3 independent experiments, and p values are shown above the bars. Whole cell lysates were analyzed for amount of calnexin, Nef and GAPDH (left panels labeled Lysate). In panel (E), HEK293T cells were co-transfected with ABCA1-FLAG and NefBRU and treated with compound NSC 13987. Cells were lysed 48 h post-transfection and ABCA1-FLAG was immunoprecipitated using anti-FLAG beads. Precipitated complexes were blotted for ABCA1 and Nef (top panels). Input amount was analyzed from whole cell lysates by immunoblotting for ABCA1, Nef and GAPDH (bottom panels).
Immunoprecipitation—For calnexin mutant/Nef interaction analysis, HEK293T cells were transfected with HA-tagged calnexin mutants and NefBRU expression plasmid. Cells were lysed 48 h post-transfection with 1% IGEPAL and 0.1% SDS lysis buffer on ice for 30 min. Lysates were incubated with anti-HA agarose beads for 2 h at 4° C. with rotation. Respective immunoprecipitates were washed three times with TBS (150 mM NaCl, 30 mM Tris-HCl, 5 mM EDTA, pH 7.5). […]

[2] = tested on: monocyte-derived macrophages (MDM) infected with HIV-1 ADA; experiment: Cholesterol efflux from HIV-1 ADA infected monocyte-derived macrophages; assay type: cell-based; settings: 14 days post-infection, versus mock-infected cells
Method: (§2) To test the effect of NSC 13987 in the context of natural infection, monocyte-derived macrophages (MDM) were infected with HIV-1 ADA, treated with NSC 13987 and cholesterol efflux was measured.
(§3) Specifically, in panel (A) THP-1 cells were transfected with Nef and incubated with compounds NSC 1758, NSC 13987 and NSC 92938 or DMSO, and cholesterol efflux was measured 5 days post-transfection. Error bars show SEM. In panel (B) primary macrophages were infected in triplicate with HIV-1 ADA. Compound NSC 13987 (5 μM) or DMSO was added 3 days after infection and maintained thereafter, and virus replication was monitored by measuring RT-activity in the supernatant over a 14-day period. Results of 3 measurements are shown as mean ±SEM. *, p<0.005; **, p<0.007. In panel (C) primary macrophages were infected with HIV-1 ADA or mock-infected and treated with DMSO or NSC13987 as in panel B. Cholesterol efflux was measured 14 days post-infection. Error bars show SEM.
Cholesterol Efflux—Infected cells were seeded in a 24-well plate and labeled with [^3H] cholesterol for 48 h. […] Level of radioactivity in the media as well as in the cells was determined by scintillation counting. Cholesterol efflux was calculated as the percentage of radioactivity in the media divided by the total amount measured in the cells and media. […]

[3] = tested on: ABCA1; experiment: ABCA1 abundance in the presence of Nef; assay type: cell-based
[4] = biological target: T2, ABCA1/Nef interaction (Human immunodeficiency virus type 1 group M subtype B, UniProt P03406); experiment: Co-immunoprecipitation of ABCA1-FLAG and Nef in HEK293T cells; assay type: cell-based, HIV-1; settings: HEK293T co-transfected with ABCA1-FLAG and NefBRU, lysed 48 h post-transfection
T2 construct: expressed in transfected cells; host or cells: HEK293T
T2 sequence (O95477 whole entry, other chains not shown): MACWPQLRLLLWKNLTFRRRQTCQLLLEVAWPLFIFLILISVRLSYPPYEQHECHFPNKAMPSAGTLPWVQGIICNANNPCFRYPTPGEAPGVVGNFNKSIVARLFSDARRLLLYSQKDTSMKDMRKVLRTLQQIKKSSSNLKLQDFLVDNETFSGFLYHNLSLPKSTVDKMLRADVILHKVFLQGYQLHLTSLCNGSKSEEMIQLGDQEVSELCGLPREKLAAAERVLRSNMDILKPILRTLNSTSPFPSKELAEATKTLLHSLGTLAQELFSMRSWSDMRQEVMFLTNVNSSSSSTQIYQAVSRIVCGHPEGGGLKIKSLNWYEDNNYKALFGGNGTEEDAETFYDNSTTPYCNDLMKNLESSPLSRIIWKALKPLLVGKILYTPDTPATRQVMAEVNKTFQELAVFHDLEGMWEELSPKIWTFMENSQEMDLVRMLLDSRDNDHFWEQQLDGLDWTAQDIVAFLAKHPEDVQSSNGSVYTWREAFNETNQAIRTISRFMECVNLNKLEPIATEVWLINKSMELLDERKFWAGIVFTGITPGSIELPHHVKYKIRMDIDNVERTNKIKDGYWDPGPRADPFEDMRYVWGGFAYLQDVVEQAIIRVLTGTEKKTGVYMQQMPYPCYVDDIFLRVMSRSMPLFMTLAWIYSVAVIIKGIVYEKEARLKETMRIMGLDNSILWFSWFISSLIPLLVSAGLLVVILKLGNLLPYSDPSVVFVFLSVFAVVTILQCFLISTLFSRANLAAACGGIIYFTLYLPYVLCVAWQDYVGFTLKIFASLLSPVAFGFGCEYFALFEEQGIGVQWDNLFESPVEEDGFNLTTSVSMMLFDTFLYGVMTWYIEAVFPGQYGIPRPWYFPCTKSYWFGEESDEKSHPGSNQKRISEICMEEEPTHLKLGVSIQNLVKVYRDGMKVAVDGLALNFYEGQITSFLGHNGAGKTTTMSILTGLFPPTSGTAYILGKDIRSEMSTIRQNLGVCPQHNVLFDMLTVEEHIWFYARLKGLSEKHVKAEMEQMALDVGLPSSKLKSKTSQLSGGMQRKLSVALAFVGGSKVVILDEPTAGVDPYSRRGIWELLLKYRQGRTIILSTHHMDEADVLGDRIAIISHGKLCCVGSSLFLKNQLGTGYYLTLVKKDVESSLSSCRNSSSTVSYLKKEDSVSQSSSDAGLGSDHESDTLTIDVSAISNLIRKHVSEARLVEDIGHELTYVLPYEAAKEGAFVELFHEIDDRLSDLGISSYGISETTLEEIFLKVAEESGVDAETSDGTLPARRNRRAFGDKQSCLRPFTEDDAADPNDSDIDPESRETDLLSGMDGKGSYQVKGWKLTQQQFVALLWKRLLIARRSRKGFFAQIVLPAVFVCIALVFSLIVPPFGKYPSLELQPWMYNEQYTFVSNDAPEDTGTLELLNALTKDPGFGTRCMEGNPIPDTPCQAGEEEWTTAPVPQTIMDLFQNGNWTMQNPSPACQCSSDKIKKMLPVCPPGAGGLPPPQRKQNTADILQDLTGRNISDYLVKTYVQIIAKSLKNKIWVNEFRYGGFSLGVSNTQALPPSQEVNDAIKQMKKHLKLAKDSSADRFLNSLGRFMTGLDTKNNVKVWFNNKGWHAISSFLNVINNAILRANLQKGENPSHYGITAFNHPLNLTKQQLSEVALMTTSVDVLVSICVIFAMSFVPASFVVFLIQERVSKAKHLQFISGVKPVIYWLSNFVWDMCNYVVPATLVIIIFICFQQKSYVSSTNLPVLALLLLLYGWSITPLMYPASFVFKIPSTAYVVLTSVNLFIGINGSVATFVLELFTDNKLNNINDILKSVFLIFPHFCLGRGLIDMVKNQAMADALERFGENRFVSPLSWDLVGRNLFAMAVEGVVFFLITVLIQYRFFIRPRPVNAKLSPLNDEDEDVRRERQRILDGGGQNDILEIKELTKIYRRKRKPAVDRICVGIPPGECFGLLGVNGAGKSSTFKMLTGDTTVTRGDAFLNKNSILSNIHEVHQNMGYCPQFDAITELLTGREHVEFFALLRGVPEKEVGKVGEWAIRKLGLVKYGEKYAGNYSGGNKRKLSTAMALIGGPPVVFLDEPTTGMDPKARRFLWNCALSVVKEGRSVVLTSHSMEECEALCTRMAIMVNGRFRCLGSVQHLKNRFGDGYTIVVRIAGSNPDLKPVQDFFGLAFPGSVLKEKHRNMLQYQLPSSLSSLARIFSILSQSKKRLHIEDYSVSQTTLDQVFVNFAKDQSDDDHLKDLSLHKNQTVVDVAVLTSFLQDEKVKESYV
Method: as §1
Their overall location in the structural alignment with the model of Nef-CNX complex is shown as translucent molecular surface. […] THP-1 cells were treated with indicated compounds for 5 days and cytotoxicity was measured using MTT assay. […] Densitometric quantification of calnexin co-immunoprecipitation with Nef is presented in the right panel. […] Whole cell lysates were analyzed for amount of calnexin, Nef and GAPDH (left panels labeled Lysate). […] Input amount was analyzed from whole cell lysates by immunoblotting for ABCA1, Nef and GAPDH (bottom panels).

[5] = tested on: THP-1 cells transfected with Nef; experiment: apoA-I specific cholesterol efflux in Nef-transfected THP-1 cells; assay type: cell-based; settings: THP-1, PMA-activated, compared to DMSO-treated Nef expressing cells
Method: Next, it was tested whether the three compounds could prevent impairment of cholesterol efflux by Nef. THP-1 cells were transfected with a Nef encoding plasmid and drug treatment was started 6 h after transfection. The following day cells were activated with PMA after which cholesterol efflux assay was performed. Drug treatment was continued throughout the duration of the experiment. […] Cholesterol efflux in Nef-transfected untreated or DMSO-treated cells was reduced by over 2-fold relative to mock-transfected cells.
as §3, with “period. […]” for “period. Results of 3 measurements are shown as mean ±SEM. *, p<0.005; **, p<0.007.”, “post-infection. […]” for “post-infection. Error bars show SEM.”
Cholesterol Efflux—Infected cells were seeded in a 24-well plate and labeled with [^3H] cholesterol for 48 h. […] Level of radioactivity in the media as well as in the cells was determined by scintillation counting. […]

[6] = tested on: HIV-1 ADA; experiment: HIV-1 ADA replication in monocyte-derived macrophages (RT activity in supernatant); assay type: cell-based
Method: as §2, §3

[7] = biological target: T3, calnexin (CNX) (Homo sapiens, UniProt P27824); experiment: Surface plasmon resonance, immobilized full-length calnexin; assay type: binding; settings: myristoylated Nef injected at 6.25-200 nM, 25° C.
T3 construct: Full length CNX and the C-terminal (cytoplasmic) domain of CNX (CNX-CT) were captured on CMS chips by amine coupling; His-tag (H8) (N); made in house; host or cells: E. coli BL21 DE
T3 sequence (P27824 21-592): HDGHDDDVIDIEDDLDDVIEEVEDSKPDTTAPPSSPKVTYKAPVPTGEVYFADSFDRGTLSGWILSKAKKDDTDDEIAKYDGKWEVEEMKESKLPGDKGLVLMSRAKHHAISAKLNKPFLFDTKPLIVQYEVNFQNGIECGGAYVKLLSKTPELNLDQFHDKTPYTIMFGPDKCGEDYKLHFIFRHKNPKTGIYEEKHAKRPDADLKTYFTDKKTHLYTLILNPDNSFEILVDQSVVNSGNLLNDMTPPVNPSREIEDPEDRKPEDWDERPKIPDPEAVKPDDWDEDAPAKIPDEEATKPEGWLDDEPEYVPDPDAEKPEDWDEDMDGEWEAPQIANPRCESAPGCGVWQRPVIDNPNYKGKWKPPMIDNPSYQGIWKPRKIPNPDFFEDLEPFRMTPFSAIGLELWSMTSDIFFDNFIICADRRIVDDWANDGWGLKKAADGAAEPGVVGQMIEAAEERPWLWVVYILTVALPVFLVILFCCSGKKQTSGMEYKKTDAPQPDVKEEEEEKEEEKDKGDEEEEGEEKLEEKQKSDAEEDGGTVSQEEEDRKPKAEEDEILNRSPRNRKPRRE
Method: (§4) Binding of myristoylated NefsF2 (33) to CNX and its cytoplasmic domain was analyzed using surface plasmon resonance (FIGS. 5B,C). CNX and CNX-CT were immobilized on microchip surfaces and myristoylated Nef was injected over the surface.
Steps of full-length CL7-tagged calnexin (CNX-CL7) purification are shown in detail. Whole cell lysate (WCL) was centrifuged to remove cell debris, the supernatant (SN) was treated with 0.07% polyethylene-emine (PE) to precipitate DNA, the pellet (PL), which contained most of CNX protein, was washed with detergent-containing buffer to release CNX into solution, centrifuged and the resulting supernatant was loaded on Immunity protein 7 (Im7) column. […] ACNX—truncated CNX fragment; SUMO—SUMO domain; P(PSC), P(SUMOP)—cleavage sites for the PSC and SUMO proteases, respectively; H8—8-Histidine tag (SEQ ID NO: 2). In panels (B) and (C), surface plasmon resonance experiments were done in a Biacore T-200 by using a CMS chip. […]
Surface Plasmon Resonance Experiments—Direct binding between purified recombinant proteins was evaluated by surface plasmon resonance technology utilizing a Biacore T-200 instrument at the Biacore Molecular Interaction Shared Resource of Georgetown University. […] The data was analyzed by BiaEvaluation software using the bivalent analyte model.

[8] = biological target: T4, cytoplasmic tail of CNX (CNX-CT) (Homo sapiens, UniProt P27824); experiment: Surface plasmon resonance, immobilized calnexin cytoplasmic tail; assay type: binding; settings: myristoylated Nef injected at 6.25-200 nM, 25° C.
T4 construct: the C-terminal (cytoplasmic) domain of CNX (CNX-CT) were captured on CMS chips by amine coupling; His-tag (N); SUMO domain (N); made in house; host or cells: E. coli BL21 DE
T4 sequence (P27824 503-592 limits assumed): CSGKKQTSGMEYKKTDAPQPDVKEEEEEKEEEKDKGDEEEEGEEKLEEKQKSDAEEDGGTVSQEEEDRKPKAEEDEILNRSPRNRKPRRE
Method: as §4
Steps of full-length CL7-tagged calnexin (CNX-CL7) purification are shown in detail. Whole cell lysate (WCL) was centrifuged to remove cell debris, the supernatant (SN) was treated with 0.07% polyethylene-emine (PE) to precipitate DNA, the pellet (PL), which contained most of CNX protein, was washed with detergent-containing buffer to release CNX into solution, centrifuged and the resulting supernatant was loaded on Immunity protein 7 (Im7) column. […] ACNX—truncated CNX fragment; SUMO—SUMO domain; P(PSC), P(SUMOP)—cleavage sites for the PSC and SUMO proteases, respectively; H8—8-Histidine tag (SEQ ID NO: 2). In panels (B) and (C), surface plasmon resonance experiments were done in a Biacore T-200 by using a CMS chip. […] Lines representing actual data and a curve fit to a […] analyte binding model in BiaEvaluation software are shown.
Surface Plasmon Resonance Experiments—Direct binding between purified recombinant proteins was evaluated by surface plasmon resonance technology utilizing a Biacore T-200 instrument at the Biacore Molecular Interaction Shared Resource of Georgetown University. Full length CNX and the C-terminal (cytoplasmic) domain of CNX (CNX-CT) were captured on CMS chips by amine coupling. Three surfaces of CM5 chip were activated by NHS/CDC (N-hydroxysuccinimide/1-ethyl-3-(3-dimethylaminopropyl)carbodiimide hydrochloride) for 720 sec. Flow cell 1 was left empty as a reference surface. Full length CNX and CNX-CT were diluted in 10 mM sodium acetate (pH 4.0) buffer at 1.8 μM and 10.6 μM, respectively, and captured on flow cell 3 and flow cell 2, at 3200 RU and 16600 RU, respectively. After protein capture, all 3 flow cells were inactivated by 720 sec injection of 1 M ethanolamine. […] The data was analyzed by BiaEvaluation software using the bivalent analyte model.

## N=C(Nc1cc2ccccc2c2ccccc12)Nc1cc2ccccc2c2ccccc12 [NSC 1758, 1,3-DI-9-Phenanthrylguanidine]
[1]; 4 μM
  inhibition of co-immunoprecipitation of Nef and calnexin: showed a trend towards inhibiting Nef/CNX binding but did not reach statistical significance

## O=C1c2ccccc2C(=O)c2c(Nc3ccc4c5c(cccc35)C(=O)c3ccccc3-4)cccc21 [NSC 13987, 1[(7-Oxo-7H-benz[de]anthracene-3-yl)amino] anthraquinone]
[2]
  cholesterol efflux from HIV-infected cells: not significantly different from that of mock-infected cells
[3]
  Nef-mediated effect on ABCA1 abundance: reversed Nef-mediated effect on ABCA1 abundance
[4]
  effect on ABCA1/Nef interaction: remained unaffected
[5]
  cholesterol efflux in Nef-transfected cells: significantly increased; also recorded: restored cholesterol efflux impaired by Nef
[1]; 5 μM
  inhibition of co-immunoprecipitation of Nef and calnexin: prevented co-precipitation of CNX with Nef
[1]; HEK-293T, read-out: inhibition of co-immunoprecipitation of Nef and calnexin
  inhibition at 5 µM: > 50%
[6]; 5 μM added 3 days after infection, RT activity over 14 days, primary macrophages
  viral replication in the presence of the compound: reduced
[6]; FIG. 7B, HIV-1 ADA in primary macrophages, 5 μM
  inhibition of viral replication: ~2 fold

## O=C1c2ccccc2C(=O)c2c1ccc1c2[nH]c2ccccc21 [NSC 92938, 5H-Naphtho(2,3-a)carbazole-5,13(12H)-dione]
[1]; 5 μM
  inhibition of co-immunoprecipitation of Nef and calnexin: showed a trend towards inhibiting Nef/CNX binding but did not reach statistical significance

## NefSF2: myristoylated HIV-1 Nef SF2 protein injected over immobilized calnexin in surface plasmon resonance
[7]
  ka: 133800 M⁻¹ s⁻¹
  kd: 0.01192 s⁻¹
[8]
  ka: 908300 M⁻¹ s⁻¹
  kd: 0.008569 s⁻¹
[8]; Biacore T-200, read-out: affinity (KD)
  Kd: 9.4 nM

From patent US11561217B2, “Compounds inhibiting Nef-calnexin interaction” (The George Washington University, a Congressionally …, priority 2016, dated 2023)
